In PubChem BioAssay (NCI):
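Growth conditions: 96-well plates. Treatment: test compound, 48 hours, 5 concentrations. Analysis: linear interpolation between bracketing concentrations; unreached endpoints set to highest concentration. Abbreviation: GI50, concentration required for 50% inhibition of growth. The concentration for full growth arrest is given as TGI.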

Assays:
Experiment in all cases: DTP human tumour cell line panel, 48 h
HL-60(TB) leukemia = tested on: HL-60(TB) leukemia
HT29 colon = tested on: HT29 colon
MOLT-4 leukemia = tested on: MOLT-4 leukemia
OVCAR-3 ovarian = tested on: OVCAR-3 ovarian
OVCAR-8 ovarian = tested on: OVCAR-8 ovarian
SK-OV-3 ovarian = tested on: SK-OV-3 ovarian
SNB-75 CNS = tested on: SNB-75 CNS
U251 CNS = tested on: U251 CNS
MDA-MB-231 breast = tested on: MDA-MB-231 breast
T-47D breast = tested on: T-47D breast

SMILES	TGI (HL-60(TB) leukemia) [µM]	TGI (HT29 colon) [µM]	TGI (MOLT-4 leukemia) [µM]	TGI (OVCAR-3 ovarian) [µM]	TGI (OVCAR-8 ovarian) [µM]	TGI (SK-OV-3 ovarian) [µM]	TGI (SNB-75 CNS) [µM]	TGI (U251 CNS) [µM]	GI50 (HT29 colon) [µM]	GI50 (MDA-MB-231 breast) [µM]	TGI (MDA-MB-231 breast) [µM]	GI50 (MOLT-4 leukemia) [µM]	GI50 (OVCAR-3 ovarian) [µM]	GI50 (OVCAR-8 ovarian) [µM]	GI50 (SK-OV-3 ovarian) [µM]	GI50 (T-47D breast) [µM]	TGI (T-47D breast) [µM]	GI50 (U251 CNS) [µM]	GI50 (HL-60(TB) leukemia) [µM]	GI50 (SNB-75 CNS) [µM]
CCCCCCCCCC(=O)OCC1OC(n2cc(F)c(=O)[nH]c2=O)C(N)C(OC(=O)CCCCCCCCC)C1O (configuration not stated)	55.1	35.8	32.7	32.7	34.6	> 100	34.4	32.3	–	–	–	–	–	–	–	–	–	–	–	–
CCN(CC)CCOc1cc2c(C(=O)OC)c(C)oc2cc1C(C)=O	–	94.9	7.5	> 100	30.3	30.2	–	10.7	17	10.8	23.5	3.02	45.1	13.4	14.7	2.25	7.75	2.75	–	–
Clc1ccc2nc(CCSCCc3nc4ccc(Cl)cc4[nH]3)[nH]c2c1	8.09	24.1	18.1	–	28	34.2	34.5	26.8	–	–	–	–	–	–	–	–	–	–	–	–
COC(=O)C#Cc1ccc([N+](=O)[O-])cc1	4.32	3.23	2.88	2.93	7.25	19	7.34	3.86	–	–	4.08	–	–	–	–	–	11.4	–	–	–
O=C(O)/C(Cl)=C(\Cl)C(=O)Nc1ccccc1	–	> 100	> 100	> 100	–	> 100	> 100	> 100	–	–	–	–	–	–	–	–	–	–	–	–
Nc1nc(N)c(-c2ccc(Cl)cc2)c(CCC(=O)Nc2cccc(C(F)(F)F)c2)n1	> 100	> 100	> 100	> 100	> 100	> 100	> 100	> 100	–	–	–	–	–	–	–	–	–	–	–	–
COc1ccc2c(c1)[n+]([O-])c(-c1nc3ccccc3s1)c(N)[n+]2[O-]	> 100	> 100	> 100	> 100	> 100	> 100	> 100	> 100	–	–	–	–	–	–	–	–	–	–	–	–
CC12CC3CC(C)(C1)CC(N=[N+]=[N-])(C3)C2	–	> 100	> 100	> 100	> 100	> 100	> 100	> 100	–	–	–	–	–	–	–	–	–	–	–	–
COC(=O)C1C(=O)O[C@@H](c2ccc(OC)cc2OC)C1C(=O)OC (some centres not stated)	> 100	> 100	> 100	> 100	> 100	> 100	> 100	> 100	–	–	–	–	–	–	–	–	–	–	–	–
CN=S(=O)(C[C@]1(O)CC2OC1C1OC(C)(C)OC21)c1ccccc1 (some centres not stated)	> 100	> 100	> 100	> 100	> 100	> 100	> 100	> 100	–	–	–	–	–	–	–	–	–	–	–	–
CCN(CC)c1ccc2c(c1)N=C1N=CC=CN1C2(c1ccc(N(C)C)cc1)c1ccc(N(C)C)cc1	3.3	10.6	6.22	6.54	17.5	19.1	24.4	16	–	–	–	–	–	–	–	–	–	–	–	–
O=C(C=Nc1ccccc1C(=O)[O-])c1cccs1.O=C(C=Nc1ccccc1C(=O)[O-])c1cccs1.[Cu+2]	> 100	> 100	> 100	> 100	> 100	> 100	> 10	> 100	–	–	–	–	–	–	–	–	–	–	–	–
CCCCCCCCCCCC(=O)OCC1OC(n2cc(F)c(=O)[nH]c2=O)C(N)C(O)C1O (configuration not stated)	> 100	> 100	> 100	> 100	> 100	> 100	> 100	> 100	–	–	–	–	–	–	–	–	–	–	–	–
C[C@]12CCC(=O)C=C1CC[C@@H]1[C@@H]2CC[C@]2(C)C(=O)/C(=C/c3cccc(OCCN4CCOCC4)c3)C[C@@H]12	5.82	16.2	–	16	> 100	> 100	31.9	24.9	2.87	11.6	42.3	–	3.91	6.28	11.7	2.9	> 100	8.5	2.13	12
COC1CC2CCC(C)[C@](O)(O2)C(=O)C(=O)N2CCCCC2C(=O)OC(C(C)CC2CCC(O)C(OC)C2)CC(=O)C(C)C=C(C)C(OC(=O)CN(C)C)C(OC)C(=O)C(C)CC(C)/C=C/C=C/C=C\1C (some centres not stated)	6.38	20.2	–	22	62.5	20	–	18.2	–	–	20.4	–	–	–	–	–	25	–	–	–
CN1CCN(Cc2ccc(NC(=O)c3cncc(C#Cc4c(N)ncc5cc(F)ccc45)c3)cc2C(F)(F)F)CC1	1.49	1.15	–	4.98	3.57	13	7.84	2.27	0.276	0.477	1.13	–	2.43	1.27	6.3	6.57	20.2	1.04	0.289	2.02
O=C(CC(=O)C(F)(F)F)c1csc2ccccc12	–	–	72.3	> 100	60.2	63.6	–	> 100	–	–	–	–	–	–	–	–	–	–	–	–
COC(=O)C1=CC2OC13CC1CCC3(C2=O)C1(C)C (configuration not stated)	23.1	27.7	33.7	20	23.8	38.1	19.9	25.6	–	–	–	–	–	–	–	–	–	–	–	–
CCC[CH2][Sn]([CH2]CCC)([S]C1=NCCS1)[S]C1=NCCS1	0.881	2.58	0.732	1.87	1.6	3.31	1.39	1.86	1.07	–	–	0.157	0.563	0.397	1.9	–	–	0.567	0.298	0.0857
ON(CCc1ccccn1)Cc1ccccc1	–	> 100	> 100	> 100	> 100	> 100	> 100	> 100	–	–	> 100	–	–	–	–	–	> 100	–	–	–
